# Source: patent US20160287553A1, “TRANSLATION INHIBITORS IN HIGH-DOSE CHEMO- AND/OR HIGH-DOSE RADIOTHERAPY” (DEUTSCHES KREBSFORSCHUNGSZENTRUM, priority 2013, published 2016)
# Entries after “also recorded” stand apart in the source; their conditions may differ.
# Assays:
# [1] = test system: ERK; conditions: Polier et al., op. cit.; cited from earlier work
# [2] = test system: neutrophils; test: Etoposide-induced apoptosis in neutrophils; assay type: cell-based, human; conditions: neutrophils (FIG. 1c)
# Method: (§1) DNA fragmentation was determined by FACS.
# (§2) Next, we asked whether Roc-A could also protect other normal primary cells from DNA damage-induced toxicity. To address this question, we examined the protective effect of Roc-A on Etoposide-treated human peripheral blood B cells, NK cells, neutrophils, cardiomyocytes and murine hematopoietic stem and progenitor cells (HSPCs).
# [3] = test system: IM-9 (Chronic myeloid leukemia), WT p53; test: Etoposide-induced cell death in IM-9; assay type: cell-based, human; conditions: IM-9 (FIG. 5b)
# Method: as §1
# (§3) Since Roc-A-mediated protection of non-malignant cells from DNA-damage-induced cell death is largely p53-dependent, we predicted that Roc-A would not protect cancer cells which have non-functional p53. […] 1997; 19: 243-253), Reh (Zhou et al, loc cit.), SKW6.4 (Barbarotto et al., J Cell Biochem. 2008; 104: 595-605) and NCI-H209 (Fujita et al. Int J Oncol. 1999; 15: 927-934) which have a WT p53 protein.
# [4] = test system: SCLC-21H cells (small cell lung cancer), p53 mutated; test: Etoposide-induced cell death in SCLC-21H; assay type: cell-based, human; conditions: SCLC-21H (FIG. 5a)
# Method: as §1, §3
# [5] = test system: HL-60 (promyelocytic leukemia), p53-deficient; test: Etoposide-induced cell death in HL-60; assay type: cell-based, human; conditions: HL-60 (FIG. 5a)
# Method: as §1, §3
# [6] = test system: protein synthesis in T cells; test: Translation assay: [35S]methionine incorporation in T cells; assay type: cell-based, human; conditions: T cells (FIG. 6b)
# Method: The relative amount of protein synthesis was determined by measuring the amount of incorporation of ^35S-methionine into the protein. Briefly, cells were pre-cultured in methionine-free medium (supplemented with 10% dialyzed FCS) for 3 h, followed by incubation with 3.5 μCi of ^35S-methionine-labeling mix (PerkinElmer, Waltham, Mass., USA) per 8×10^5 cells for 6 h as indicated. After the treatment, cells were washed twice with ice-cold PBS and lysed in RIPA buffer. 50 μl of each lysate were added to 1 ml of Liquid Scintillation Cocktail solution (Beckman Coulter, Brea, Calif., USA) and the amount of incorporated radioactivity was determined by liquid scintillation counting.
# Roc-A has been well documented to inhibit protein translation (Polier et al., Chem Biol. 2012; 19: 1093-1104; Sadlish et al., ACS Chem Biol. 2013; doi:10.1021/cb400158t; Bleumink et al., Cell Death Differ. 2011; 18: 362-370; Cencic et al., PloS one. 2009; 4: e5223). Thus, we expected that Roc-A-mediated suppression of genotoxin-induced p53 upregulation may be regulated by inhibition of p53 protein synthesis.
# [7] = test system: Splenocytes from p53+/+ mice; test: Etoposide-induced cell death in p53 wild-type splenocytes; assay type: cell-based, mouse; conditions: p53-WT splenocytes, 50 μM Etoposide, 75 nM Roc-A (FIG. 4b)
# Method: as §1
# P53^−/− C57B1/6 mice (B6.Trp53tm1Tyj) were kindly provided by Liu H-K (German Cancer Research Center, Heidelberg, Germany). Spleens of 8-12 week old p53^−/−, and p53^+/+ mice were isolated in parallel, minced and incubated for 30 min in RPMI-1640 medium supplemented with DNase I (50 U/ml) and Collagenase IV (1 mg/ml) at 37° C. and 5% CO2. Splenocytes were filtered by […] cell strainer, washed twice with ice-cold wash buffer (PBS, 0.5% FCS, 2 mM EDTA) and resuspended in Oxford medium (RPMI 1640, 10% FCS, 100 μg/ml Penicillin, 100 μg/ml Streptamycin, 10 mM Hepes, 50 μM β-Mercaptoethanol, 2 mM L-glutamine, 1 mM sodium pyruvate, 100 μM non-essential amino acids) at a concentration of 2×10^6 cells/ml.
# To further investigate the role of p53 in Roc-A-mediated protection of T cells against DNA damage-induced apoptosis, we performed a p53 knock-down experiment using a siRNA approach (FIG. 4a, upper panel). […] Therefore, we examined the effect of Roc-A on p53 knock-out (KO) cells.
# [8] = test system: Hut-78 (T cell lymphoma), p53 mutated; test: Etoposide-induced cell death in Hut-78; assay type: cell-based, human; conditions: Hut-78 (FIG. 5a)
# Method: as §1, §3
# [9] = test system: Peripheral blood T cells; test: Teniposide-, Doxorubicin- and Bleomycin-induced apoptotic cell death in T cells; assay type: cell-based, human; conditions: Roc-A 75 nM; increasing doses of the drugs (FIG. 1b)
# Method: as §1
# (§4) The radioprotective effect mediated by Roc-A was the highest when cells were treated with Roc-A 1 h before radiation of cells (FIG. 1d). However, when cells were treated 4 h after radiation, the radioprotective effect was still higher than 50% (FIG. 1d).
# [10] = test system: cardiomyocytes; test: Etoposide-induced apoptosis in cardiomyocytes; assay type: cell-based, human; conditions: cardiomyocytes (FIG. 1c)
# Method: as §1, §2
# [11] = test system: L1236 (Hodgkin's lymphoma), p53 mutated; test: Etoposide-induced cell death in L1236; assay type: cell-based, human; conditions: L1236 (FIG. 5a)
# Method: as §1, §3
# [12] = test system: Primary human T cells; test: Ionizing radiation (IR)-induced apoptosis in T cells; assay type: cell-based
# Method: as §1, §4
# [13] = test system: murine hematopoietic stem and progenitor cells (HSPCs); test: Etoposide-induced apoptosis in hematopoietic stem and progenitor cells; assay type: cell-based, mouse; conditions: HSPCs (FIG. 1c)
# Method: as §1
# To perform lineage depletion, bone marrow cells were incubated on ice for 40 minutes with rat monoclonal antibodies against common epitopes expressed on mature blood and bone marrow cells (CD11b (M1/70), Gr-1 (RB6.8C5), CD4 (GK1.5), CD8a (53.6.7), Ter119 (Ter119) and B220 (RA3-6B2)). Subsequently, cells were washed and incubated for 15 minutes on ice with anti-rat IgG-coated Dynabeads (4.5 μm supermagnetic polystyrene beads, Invitrogen), 1 ml of beads per 3×10^8 bone marrow cells. Cells expressing lineage markers were depleted using a magnet and the remaining lineage-negative cells were isolated and washed. To provide optimal conditions for HSPCs in downstream experiments lineage-negative hematopoietic stem and progenitor-enriched cells were cultured in StemPro®-34 serum-free medium (Invitrogen, Darmstadt, Germany) supplemented with nutrient supplement (Invitrogen, Darmstadt, Germany) as well as recombinant TPO (50 ng/ml, (Peprotech, Hamburg, Germany)), SCF (50 ng/ml, (Peprotech, Hamburg, Germany)) and Flt3-ligand (50 ng/ml, (Peprotech, Hamburg, Germany)).
# Next, we asked whether Roc-A could also protect other normal primary cells from DNA damage-induced toxicity. […]
# [14] = test system: SKW6.4 (B cell leukemia), WT p53; test: Etoposide-induced cell death in SKW6.4; assay type: cell-based, human; conditions: SKW6.4 (FIG. 5b)
# Method: as §1, §3
structure (smiles),measurement,setting,value
"COc1ccc([C@@]23Oc4cc(OC)cc(OC)c4[C@]2(O)[C@H](O)[C@H](C(=O)N(C)C)[C@H]3c2ccccc2)cc1 [Roc-A, (1R,2R,3S,3aR,8bS)-1,8b-dihydroxy-6,8-dimethoxy-3a-(4-methoxyphenyl)-N,N-dimethyl-3-phenyl-2,3-dihydro-1H-cyclopenta[b][1]benzofuran-2-carboxamide]",Inhibitory effect on ERK activity / activation,[1],inhibit ERK activation with different efficacies
same,Protection against Etoposide-induced apoptosis,[2],protected
same,Protection against Etoposide-induced cell death,[3],protected by Roc-A from Etoposide-induced cell death but to a lesser extent than non-malignant cells
same,Protection against Etoposide-induced cell death,[4],did neither protect
same,Protection against Etoposide-induced cell death,[5],did neither protect
same,Inhibition of [35S]methionine incorporation (protein translation),[6],inhibited [^35S]methionine incorporation at different degrees
same,Protection against Etoposide-induced cell death,[7],protected
same,Protection against Etoposide-induced cell death,[8],did neither protect
same,"Drug-induced apoptosis (Teniposide, Doxorubicin, Bleomycin)",[9],"reduces Teniposide-, Doxorubicin- and Bleomycin-induced apoptotic cell death in T cells; also recorded: could reduce drug-induced apoptosis in all cases"
same,Protection against Etoposide-induced apoptosis,[10],protected
same,Protection against Etoposide-induced cell death,[11],did neither protect
same,Radioprotective effect by time of Roc-A addition,[12]; Roc-A 1 h before radiation (10 Gy) (FIG. 1d),highest
same,Radioprotective effect (percent of protection from IR-induced apoptosis),[12]; Roc-A 4 h after radiation (10 Gy) (FIG. 1d),higher than 50%
same,Ionizing radiation-induced apoptosis in T cells,"[12]; increasing doses of IR, different concentrations of Roc-A, 24 h (FIG. 1e)",reduced ionizing radiation-induced apoptosis in T cells
same,Protection against Etoposide-induced apoptosis,[13],protected
same,Protection against Etoposide-induced cell death,[14],protected by Roc-A from Etoposide-induced cell death but to a lesser extent than non-malignant cells
